# Test results as given in US20130324489A1, “NEW ANTIFUNGAL COMPOSITIONS” (DSM IP ASSETS B.V., priority 2011, published 2013).
# “And” between values parts separate entries of the source, which are not always exact repeats. Equal entries are not always repeated.
# What was measured:
# Botrytis cinerea [1] = assay: Treatment of wounded strawberries inoculated with Botrytis cinerea (dip, mould growth); assay type: in vivo; settings: 20° C.
# Description: Ten fresh, organic strawberries were used per treatment. Each strawberry was wounded with a 0.5 mm long cut and each wound was inoculated with 10 μl of a Botrytis cinerea suspension containing 1×10^5 of spores/ml. […] The antifungal composition also comprised 3.1% (w/w) beeswax, 0.76% (w/w) glycerol, 0.66% (w/w) polyoxyethylene sorbitan monostearate (Tween 60), 0.03% (w/w) methylhydroxyethyl-cellulose (MHEC), 0.02% (w/w) xanthan gum, 0.02% (w/w) anti-foaming agent, 0.15% (w/w) citric acid and 0.01% (w/w) potassium sorbate. The pH of the compositions was 4. A composition without natamycin or procymidone was used as control. The treated strawberries were incubated in a closed box in the dark at 20° C. for 13 days.
# During incubation, mould growth on the strawberries was assessed in a twofold manner: (i) the number of moulded strawberries per total of 10 strawberries was counted; and (ii) the antifungal activity (in %) of the individual and combined active ingredients was determined by calculating the reduction in mould growth observed on the strawberries treated with the antifungal composition in comparison to the mould growth on the strawberries treated with the control composition. The expected antifungal activity (E in %) of the combined antifungal composition comprising both active ingredients was calculated according to the Colby equation (Colby, 1967): […]
# wherein X and Y are the observed antifungal activities (in %) of the individual active ingredients X and Y, respectively. If the observed antifungal activity (O in %) of the combination exceeds the expected antifungal activity (E in %) of the combination and the synergy factor O/E is thus >1.0, the combined application of the active ingredients leads to a synergistic antifungal effect.
# The treated strawberries were assessed on mould growth after 4, 5 and 7 days of incubation according to the two methods described in Example 3.
# The treated strawberries were incubated for 9 days and, as of day 5, assessed on mould growth daily. The antifungal activity (in %) of the individual and combined active ingredients was determined according to the method described in Example 3.
# During incubation, the treated strawberries were assessed on mould growth according to the two methods described in Example 3.
# Botrytis cinerea [2] = assay: In vitro antifungal activity, 96-well microtiter plates; assay type: cell-based; settings: 1.25 ppm natamycin, 25° C.
# Description: The following compositions were tested: […] After incubation of the microtiter plates at 25° C., the in vitro antifungal activity (%) of the individual active ingredients was assessed by calculating the reduction in mould growth observed in the presence of the active ingredient in comparison to the mould growth observed in the absence of the active ingredient. The expected antifungal activity (E in %) of the active ingredient combination was calculated according to the Colby equation (Colby, 1967): […] wherein X and Y are the observed antifungal activities (in %) of the individual active ingredients X and Y, respectively.
# [3] = 250 ppm natamycin, 250 ppm procymidone or both, day 4
# [4] = 250 ppm natamycin, 250 ppm procymidone or both, day 5
# [5] = 250 ppm natamycin, 250 ppm procymidone or both, day 6
# [6] = 250 ppm natamycin, 250 ppm procymidone or both, day 7
# [7] = 250 ppm natamycin, 250 ppm procymidone or both, day 8
# [8] = 250 ppm natamycin, 250 ppm procymidone or both, day 9
# [9] = 250 ppm natamycin, 250 ppm procymidone or both, day 10
# [10] = 250 ppm natamycin, 250 ppm procymidone or both, day 12
# [11] = 250 ppm natamycin, 500 ppm procymidone or both, day 5
# [12] = 250 ppm natamycin, 500 ppm procymidone or both, day 6
# [13] = 250 ppm natamycin, 500 ppm procymidone or both, day 7
# [14] = 250 ppm natamycin, 500 ppm procymidone or both, day 8
# [15] = 250 ppm natamycin, 500 ppm procymidone or both, day 9
# [16] = 500 ppm natamycin, 1000 ppm procymidone or both, day 4
# [17] = 500 ppm natamycin, 1000 ppm procymidone or both, day 5
# [18] = 500 ppm natamycin, 1000 ppm procymidone or both, day 7
# [19] = 500 ppm natamycin, 2000 ppm procymidone or both, day 5
# [20] = 500 ppm natamycin, 2000 ppm procymidone or both, day 6
# [21] = 500 ppm natamycin, 2000 ppm procymidone or both, day 7
# [22] = 500 ppm natamycin, 2000 ppm procymidone or both, day 8
# [23] = 500 ppm natamycin, 2000 ppm procymidone or both, day 8-10
# [24] = 500 ppm natamycin, 2000 ppm procymidone or both, day 9
# [25] = 500 ppm natamycin, 2000 ppm procymidone or both, day 10
# [26] = 500 ppm natamycin, 2000 ppm procymidone or both, day 12
# [27] = 500 ppm natamycin, 2000 ppm procymidone or both, day 13
# [28] = 1.5 ppm vinclozolin, 1.25 ppm procymidone, alone or natamycin + one of them, day 3
# [29] = 1.5 ppm vinclozolin, 1.25 ppm procymidone, alone or natamycin + one of them, day 6
structure (smiles),measurement,setting,value
"C[C@@H]1C/C=C/C=C/C=C/C=C/[C@H](O[C@@H]2O[C@H](C)[C@@H](O)[C@H](N)[C@@H]2O)C[C@@H]2O[C@](O)(C[C@@H](O)C[C@H]3O[C@@H]3/C=C/C(=O)O1)C[C@H](O)[C@H]2C(=O)O [Natamycin, natamycin]",Number of moulded strawberries/total number of 10 strawberries,Botrytis cinerea [1]; [3],4 and 4/10
same,Observed antifungal activity O (%),Botrytis cinerea [1]; [3],53%
same,Number of moulded strawberries/total number of 10 strawberries,Botrytis cinerea [1]; [4],7 and 7/10
same,Observed antifungal activity O (%),Botrytis cinerea [1]; [4],34%
same,Number of moulded strawberries/total number of 10 strawberries,Botrytis cinerea [1]; [5],9 and 9/10
same,Observed antifungal activity O (%),Botrytis cinerea [1]; [5],15%
same,Number of moulded strawberries/total number of 10 strawberries,Botrytis cinerea [1]; [6],10 and 10/10
same,Observed antifungal activity O (%),Botrytis cinerea [1]; [6],11%
same,Number of moulded strawberries/total number of 10 strawberries,Botrytis cinerea [1]; [7],10 and 10/10
same,Observed antifungal activity O (%),Botrytis cinerea [1]; [7],10%
same,Number of moulded strawberries/total number of 10 strawberries,Botrytis cinerea [1]; [8],10 and 10/10
same,Observed antifungal activity O (%),Botrytis cinerea [1]; [8],5%
same,Observed antifungal activity O (%),Botrytis cinerea [1]; [9],3%
same,Observed antifungal activity O (%),Botrytis cinerea [1]; [10],0%
same,Observed antifungal activity O (%),Botrytis cinerea [1]; [11],34%
same,Observed antifungal activity O (%),Botrytis cinerea [1]; [12],15%
same,Observed antifungal activity O (%),Botrytis cinerea [1]; [13],11%
same,Observed antifungal activity O (%),Botrytis cinerea [1]; [14],10%
same,Observed antifungal activity O (%),Botrytis cinerea [1]; [15],5%
same,Observed antifungal activity O (%),Botrytis cinerea [1]; [16],36%
same,Number of moulded strawberries/total number of 10 strawberries,Botrytis cinerea [1]; [17],9 and 9/10
same,Observed antifungal activity O (%),Botrytis cinerea [1]; [17],12%
same,Number of moulded strawberries/total number of 10 strawberries,Botrytis cinerea [1]; [18],10 and 10/10
same,Observed antifungal activity O (%),Botrytis cinerea [1]; [18],7%
same,Number of moulded strawberries/total number of 10 strawberries,Botrytis cinerea [1]; [19],9 and 9/10
same,Observed antifungal activity O (%),Botrytis cinerea [1]; [19],12%
same,Number of moulded strawberries/total number of 10 strawberries,Botrytis cinerea [1]; [20],9 and 9/10
same,Observed antifungal activity O (%),Botrytis cinerea [1]; [20],4%
same,Number of moulded strawberries/total number of 10 strawberries,Botrytis cinerea [1]; [21],10 and 10/10
same,Observed antifungal activity O (%),Botrytis cinerea [1]; [21],7%
same,Observed antifungal activity O (%),Botrytis cinerea [1]; [22],5%
same,Number of moulded strawberries/total number of 10 strawberries,Botrytis cinerea [1]; [23],10 and 10/10
same,Observed antifungal activity O (%),Botrytis cinerea [1]; [24],3%
same,Observed antifungal activity O (%),Botrytis cinerea [1]; [25],3%
same,Number of moulded strawberries/total number of 10 strawberries,Botrytis cinerea [1]; [26],10 and 10/10
same,Observed antifungal activity O (%),Botrytis cinerea [1]; [26],0%
same,Observed antifungal activity O (%),Botrytis cinerea [1]; [27],0%
same,Observed antifungal activity O (%),Botrytis cinerea [2]; [28],0%
same,Observed antifungal activity O (%),Botrytis cinerea [2]; [29],0%
same,Observed antifungal activity O (%),"Botrytis cinerea [2]; 3.0 ppm iprodione or both, day 5",50%
same,Observed antifungal activity O (%),"Botrytis cinerea [2]; 7.0 ppm vinclozolin, 2.0 ppm procymidone, alone or natamycin + one of them, day 10",0%
same,Observed antifungal activity O (%),"Botrytis cinerea [2]; 8.0 ppm iprodione or both, day 12",0%
"CC12CC1(C)C(=O)N(c1cc(Cl)cc(Cl)c1)C2=O (stereo not drawn) [Procymidone, procymidone]",Number of moulded strawberries/total number of 10 strawberries,Botrytis cinerea [1]; [3],10 and 10/10
same,Observed antifungal activity O (%),Botrytis cinerea [1]; [3],58%
same,Number of moulded strawberries/total number of 10 strawberries,Botrytis cinerea [1]; [4],10 and 10/10
same,Observed antifungal activity O (%),Botrytis cinerea [1]; [4],41%
same,Number of moulded strawberries/total number of 10 strawberries,Botrytis cinerea [1]; [5],10 and 10/10
same,Observed antifungal activity O (%),Botrytis cinerea [1]; [5],34%
same,Number of moulded strawberries/total number of 10 strawberries,Botrytis cinerea [1]; [6],10 and 10/10
same,Observed antifungal activity O (%),Botrytis cinerea [1]; [6],31%
same,Number of moulded strawberries/total number of 10 strawberries,Botrytis cinerea [1]; [7],10 and 10/10
same,Observed antifungal activity O (%),Botrytis cinerea [1]; [7],27%
same,Number of moulded strawberries/total number of 10 strawberries,Botrytis cinerea [1]; [8],10 and 10/10
same,Observed antifungal activity O (%),Botrytis cinerea [1]; [8],13%
same,Observed antifungal activity O (%),Botrytis cinerea [1]; [9],10%
same,Observed antifungal activity O (%),Botrytis cinerea [1]; [10],5%
same,Observed antifungal activity O (%),Botrytis cinerea [1]; [11],39%
same,Observed antifungal activity O (%),Botrytis cinerea [1]; [12],26%
same,Observed antifungal activity O (%),Botrytis cinerea [1]; [13],20%
same,Observed antifungal activity O (%),Botrytis cinerea [1]; [14],20%
same,Observed antifungal activity O (%),Botrytis cinerea [1]; [15],17%
same,Observed antifungal activity O (%),Botrytis cinerea [1]; [16],69%
same,Number of moulded strawberries/total number of 10 strawberries,Botrytis cinerea [1]; [17],10 and 10/10
same,Observed antifungal activity O (%),Botrytis cinerea [1]; [17],59%
same,Number of moulded strawberries/total number of 10 strawberries,Botrytis cinerea [1]; [18],10 and 10/10
same,Observed antifungal activity O (%),Botrytis cinerea [1]; [18],44%
same,Number of moulded strawberries/total number of 10 strawberries,Botrytis cinerea [1]; [19],8 and 8/10
same,Observed antifungal activity O (%),Botrytis cinerea [1]; [19],63%
same,Number of moulded strawberries/total number of 10 strawberries,Botrytis cinerea [1]; [20],9 and 9/10
same,Observed antifungal activity O (%),Botrytis cinerea [1]; [20],51%
same,Number of moulded strawberries/total number of 10 strawberries,Botrytis cinerea [1]; [21],10 and 10/10
same,Observed antifungal activity O (%),Botrytis cinerea [1]; [21],38%
same,Observed antifungal activity O (%),Botrytis cinerea [1]; [22],35%
same,Number of moulded strawberries/total number of 10 strawberries,Botrytis cinerea [1]; [23],10 and 10/10
same,Observed antifungal activity O (%),Botrytis cinerea [1]; [24],23%
same,Observed antifungal activity O (%),Botrytis cinerea [1]; [25],13%
same,Number of moulded strawberries/total number of 10 strawberries,Botrytis cinerea [1]; [26],10 and 10/10
same,Observed antifungal activity O (%),Botrytis cinerea [1]; [26],2%
same,Observed antifungal activity O (%),Botrytis cinerea [1]; [27],0%
same,Observed antifungal activity O (%),Botrytis cinerea [2]; [28],0%
same,Observed antifungal activity O (%),Botrytis cinerea [2]; [29],0%
